A short description of the series: Absorbance and fluorescence measurements (excitation maximum, emission maximum, quantum yield vs coumarin 151). The series is classed as physicochemical. Also noted: key to Quantum Yield: fraction relative to coumarin 151 in ethanol standard. To be noted: for λex: absorbance/excitation maximum; for λex / Quantum Yield / λem: measurements run with methanol; for Quantum Yield: coumarin 151 in ethanol as standard; for Quantum Yield / λem: 2.5 mm slit width; for λem: emission maximum. From the text:
All reagents and solvents were acquired from commercially available suppliers and used without further purification. Methanol(dried on molecular sieves-Acroseal) was obtained from Acros. […] 1H and 13C NMR spectra were obtained on a Bruker NMR spectrometer at 500/400 and 125/100 MHz respectively. The data is reported as follows: chemical shift in ppm (δ), multiplicity (s=singlet, d=doublet, dd=doublet of doublets, t=triplet, dt=doublet of triplets, td=triplet of doublets, q=quartet, p=pentet, m=multiplet). Coupling constants are reported in Hertz (Hz) and were automatically generated using known NMR analyzer software (MestReNova), these were then subsequently curated. High-resolution mass spectra were obtained using the positive ESI method for all the compounds, obtained in an Ion Cyclotron Resonance (ICR) spectrometer. Absorbance spectra were obtained using an Agilent 8453 UV-visible spectroscopy system. Fluorescence was measured on a Varian (Agilent) Cary Eclipse Fluorimeter. Quantum yield measurements were calculated and reported using coumarin 151 in ethanol as a standard.^1 Fluorescence scans were obtained using a 2.5 mm slit width unless otherwise noted.
The fluorescence was also measured in different solvents to examine the solvent effects.

In the case of `Cn1cccc1-c1nc2ccccn2c1N` [Compound 10o, 2-(1-methyl-1H-pyrrol-2-yl)imidazo[1,2-a]pyridin-3-amine], the λex was 349 nm, the “Quantum Yield” value came out at 0.20 and the λem worked out at 478 nm.
In the case of `COc1cccc(-c2nc3c(nc4ccccn43)c3c(OC)c(OC)ccc23)c1OC` [Compound 16b, 5-(2,3-dimethoxyphenyl)-1,2-dimethoxypyrido[2′,1′:2,3]imidazo[4,5-c]isoquinoline], the λex was determined as 366 nm, the “Quantum Yield” value worked out at 0.34 and the λem worked out at 418 nm.
On to `Cc1nn2c(NC(C)(C)C)c(-c3ccc4ccccc4c3)nc2nc1/C=C/c1ccc2ccccc2c1` [Compound 43, (E)-N-(tert-butyl)-2-methyl-6-(naphthalen-2-yl)-3-(2-(naphthalen-2-yl)vinyl)imidazo[1,2-b][1,2,4]triazin-7-amine], for which the λex is given as 485 nm, the “Quantum Yield” value was 0.22 and the λem is 643 nm.
On to `Nc1c(-c2ccc(Oc3ccccc3)cc2)nc2ccccn12` [Compound 10m, 2-(4-phenoxyphenyl)imidazo[1,2-a]pyridin-3-amine], for which the λex is listed as 343 nm, the “Quantum Yield” value is listed as 0.40 and the λem amounted to 474 nm.
Turning to `c1ccc2cc(-c3nc4c(nc5ccccn54)c4ccc5ccccc5c34)ccc2c1` [Compound 16e, 7-(naphthalen-2-yl)benzo[h]pyrido[2′,1′:2,3]imidazo[4,5-c]isoquinoline], the λex was found to be 389 nm, the “Quantum Yield” value worked out at 0.01 and the λem came to 442 nm.
Take “(E)-5-(3,5-dimethoxyphenyl)-10-(3,5-dimethoxystyryl)-2,4-dimethoxy-9-methyl-[1,2,4]triazino[3′, 2′: 2,3]imidazo[4,5-c]isoquinolines [Compound 79]”: the λex is 498 nm, the “Quantum Yield” value worked out at 0.18 and the λem is reported as 608 nm.
With `CCN(CC)c1ccc(-c2nc3cccnn3c2N)cc1` [Compound 10ag, 2-(4-(diethylamino)phenyl)imidazo[1,2-b]pyridazin-3-amine], the λex was found to be 444 nm, the “Quantum Yield” value was determined as 0.06 and the λem turned out to be 572 nm.
`Cc1nn2c(/N=C/c3ccccc3)c(-c3ccccc3)nc2nc1/C=C/c1ccccc1` [Compound 58, (E)-N-(2-methyl-6-phenyl-3-((E)-styryl)imidazo[1,2-b][1,2,4]triazin-7-yl)-1-phenylmethanimine]: the λex stood at 510 nm, the “Quantum Yield” value is reported as 0.04 and the λem is listed as 601 nm.
With `Cc1cc(C)cc(-c2nc3ccccn3c2N)c1` [Compound 101, 2-(3,5-dimethylphenyl)imidazo[1,2-a]pyridin-3-amine], the λex worked out at 343 nm, the “Quantum Yield” value is given as 0.28 and the λem amounted to 474 nm.
As for `COC(=O)c1ccn2c(N)c(-c3ccc(OC)cc3)nc2c1` [Compound 10ak, methyl 3-amino-2-(4-methoxyphenyl)imidazo[1,2-a]pyridine-7-carboxylate], the λex was 394 nm, the “Quantum Yield” value came to 0.40 and the λem worked out at 510 nm.
In the case of `COC(=O)c1ccn2c(N)c(-c3ccc(N(c4ccccc4)c4ccccc4)cc3)nc2c1` [Compound 10an, methyl 3-amino-2-(4-(diphenylamino)phenyl)imidazo[1,2-a]pyridine-7-carboxylate], the λex amounted to 430 nm, the “Quantum Yield” value stood at 0.44 and the λem turned out to be 529 nm.
Turning to `Nc1c(-c2ccc([N+](=O)[O-])cc2)nc2ccccn12` [Compound 10k, 2-(4-nitrophenyl)imidazo[1,2-a]pyridin-3-amine], the “fluorescence (observation in words)” value was “did not show any observable fluorescence intensity” and the λex amounted to 304 nm.
As for `COc1ccn2c(N)c(-c3ccc([N+](=O)[O-])cc3)nc2c1` [Compound 10au, 7-methoxy-2-(4-nitrophenyl)imidazo[1,2-a]pyridin-3-amine], the λex is recorded as 360 nm.
Consider `COC(=O)c1ccn2c(N)c(-c3cc(OC)c(OC)c(OC)c3)nc2c1` [Compound 10al, methyl 3-amino-2-(3,4,5-trimethoxyphenyl)imidazo[1,2-a]pyridine-7-carboxylate], for which the λex is on record as 399 nm, the “Quantum Yield” value turned out to be 0.51 and the λem came out at 512 nm.
`COc1cc(OC)cc(-c2nc3ncccn3c2N)c1` [Compound 10r, 2-(3,5-dimethoxyphenyl)imidazo[1,2-a]pyrimidin-3-amine]: the λex was 371 nm, the “Quantum Yield” value is 0.02 and the λem turned out to be 553 nm.
`COc1cc(OC)cc(-c2nc3c(nc4ccccn43)c3cc(OC)cc(OC)c23)c1` [Compound 16d, 5-(3,5-dimethoxyphenyl)-2,4-dimethoxypyrido[2′,1′:2,3]imidazo[4,5-c]isoquinoline]: the λex was determined as 364 nm, the “Quantum Yield” value is 0.01 and the λem is on record as 415 nm.
Consider `COc1ccc(/C=C/c2nc3nc(-c4ccc(OC)cc4)c(/N=C/c4ccc(OC)cc4)n3nc2C)cc1` [Compound 60, (E)-1-(4-methoxyphenyl)-N-(6-(4-methoxyphenyl)-3-((E)-4-methoxystyryl)-2-methylimidazo[1,2-b][1,2,4]triazin-7-yl)methanimine], for which the λex is reported as 563 nm, the “Quantum Yield” value is on record as 0.19 and the λem is 609 nm.
In the case of `COc1cc(/C=C/c2nc3nc(-c4cc(OC)c(OC)c(OC)c4)c(/N=C/c4cc(OC)c(OC)c(OC)c4)n3nc2C)cc(OC)c1OC` [Compound 64, (E)-N-(2-methyl-6-(3,4,5-trimethoxyphenyl)-3-((E)-3,4,5-trimethoxystyryl)imidazo[1,2-b][1,2,4]triazin-7-yl)-1-(3,4,5-trimethoxyphenyl)methanimine], the λex is recorded as 533 nm, the “Quantum Yield” value is reported as 0.10 and the λem worked out at 611 nm.
With `COc1cc(/C=C/c2nc3nc(-c4cc(OC)c(OC)c(OC)c4)c(NC(C)(C)C)n3nc2C)cc(OC)c1OC` [Compound 48, (E)-N-(tert-butyl)-2-methyl-6-(3,4,5-trimethoxyphenyl)-3-(3,4,5-trimethoxystyryl)imidazo[1,2-b][1,2,4]triazin-7-amine], the λex is 506 nm, the “Quantum Yield” value is 0.28 and the λem was 633 nm.
As to `Nc1c(-c2cccc([N+](=O)[O-])c2)nc2ccccn12` [Compound 10j, 2-(3-nitrophenyl)imidazo[1,2-a]pyridin-3-amine], the λex was determined as 350 nm.
For `Nc1c(-c2ccc(N(c3ccccc3)c3ccccc3)cc2)nc2cccnn12` [Compound 10af, 2-(4-(diphenylamino)phenyl)imidazo[1,2-b]pyridazin-3-amine], the λex was determined as 438 nm, the “Quantum Yield” value was 0.05 and the λem turned out to be 544 nm.
As for `Cc1nn2c(NC(C)(C)C)c(-c3cccs3)nc2nc1/C=C/c1cccs1` [Compound 47, (E)-N-(tert-butyl)-2-methyl-6-(thiophen-2-yl)-3-(2-(thiophen-2-yl)vinyl)imidazo[1,2-b][1,2,4]triazin-7-amine], the λex came to 513 nm, the “Quantum Yield” value amounted to 0.33 and the λem amounted to 647 nm.
As for `Nc1c(-c2ccc([N+](=O)[O-])cc2)nc2ccc(N3CCCCC3)cn12` [Compound 10aw, 2-(4-nitrophenyl)-6-(piperidin-1-yl)imidazo[1,2-a]pyridin-3-amine], the λex is given as 390 nm.
“2-(3,4,5-trimethoxyphenyl)imidazo[1,2-a]pyridin-3-amine [Compound 10a]”: the λex worked out at 343 nm, the “Quantum Yield” value was 0.36 and the λem is reported as 474 nm.
Consider `COc1cc(OC)cc(-c2nc3cccnn3c2N)c1` [Compound lot, 2-(3,5-dimethoxyphenyl)imidazo[1,2-b]pyridazin-3-amine], for which the λex amounted to 407 nm, the “Quantum Yield” value is recorded as 0.02 and the λem was determined as 546 nm.
Consider `COC(=O)c1ccn2c(N)c(-c3cc(OC)cc(OC)c3)nc2c1` [Compound 10v, methyl 3-amino-2-(3,5-dimethoxyphenyl)imidazo[1,2-a]pyridine-7-carboxylate], for which the λex is recorded as 403 nm, the “Quantum Yield” value is 0.42 and the λem came to 514 nm.
For `Cc1nn2c(/N=C/c3cccs3)c(-c3cccs3)nc2nc1/C=C/c1cccs1` [Compound 63, (E)-N-(2-methyl-6-(thiophen-2-yl)-3-((E)-2-(thiophen-2-yl)vinyl)imidazo[1,2-b][1,2,4]triazin-7-yl)-1-(thiophen-2-yl)methanimine], in that order: 572 nm, 0.19 and 615 nm.
On the same counts, the results for `COc1cc(/C=C/c2nc3nc(-c4cc(OC)cc(OC)c4)c(/N=C/c4cc(OC)cc(OC)c4)n3nc2C)cc(OC)c1` [Compound 62, (E)-1-(3,5-dimethoxyphenyl)-N-(6-(3,5-dimethoxyphenyl)-3-((E)-3,5-dimethoxystyryl)-2-methylimidazo[1,2-b][1,2,4]triazin-7-yl)methanimine] are 506 nm, 0.10 and 589 nm.
